Data from patent publication US8772268B2, “Bisphosphonamidate prodrugs and uses thereof” (The Johns Hopkins University, priority 2010, dated 2014).
Several values for one entry are separate records, joined by “and”; a condition that tells them apart may be missing. Equal entries are not always repeated. Where two headings read alike, the source gives them in different places. Blank lines part the entries; values can stand above or below the molecule they belong to.

Legend:
A549 NSCLC cells [1] = assay: MTS cell proliferation assay, A549; type: cell-based; details: for growth inhibitory effect against A549 cells: concentrations up to 1 mM; for EC50: Homo sapiens, A549 (NSCLC), MTS, table of Example 3; for IC50: A549, MTS, read-out: IC50 (decreased cell proliferation by 50% compared to control)
Protocol: Cell proliferation was determined using the CellTiter 96 Aqueous One Solution Cell Proliferation Assay MTS assay. A549 NSCLC cells were plated at 1.5×10^3 cells per well in flat bottom 96 well plates in 99 μL of media and allowed to adhere overnight. The drugs were serially diluted in 100% DMSO. For each drug treatment group, 1 μL of a 100× stock solution was added to each well for a final DMSO concentration of 1%. Cells were treated for 24, 48 or 72 hours. Cells were incubated with MTS dye (20 μL well^−1) for 40 min to 2 h. Absorbance at 490 nm was determined using a SpectraMax M2 (Molecular Devices) plate reader. The percent cell proliferation was calculated by converting the experimental absorbance to percentage of control, which was then plotted vs. drug concentration. The IC50 values were determined using a non-linear dose-response analysis in GraphPad Prism version 4.0. The IC50 is defined as the concentration of drug needed to cause a 50% decrease in proliferation compared to vehicle control. […]

P. falciparum (NF54) = assay: Antimalarial [3H]-hypoxanthine incorporation assay; type: cell-based, Plasmodium falciparum
Protocol: Plasmodium falciparum culture. NF54 P. falciparum parasites were maintained in O+ positive erythrocytes (obtained weekly from a rotating pool of screened healthy donors) in complete medium containing RPMI (Sigma), 25 mM N-2-hydroxyethylpiperazine-N′-2-ethanesulfonic acid (HEPES; Sigma), 27 mM sodium bicarbonate (Sigma) and 10% heat-inactivated male O+ serum in non-vented flasks. Hematocrit was maintained at 2.4%. Flasks were gassed with a mixture of 3% oxygen, 4% carbon dioxide, 93% nitrogen. Parasitemia was maintained at 0.1-5% by changing medium and erythrocytes two to three times a week.
Antimalarial activity was measured using a [^3H]-hypoxanthine incorporation assay as described previously (Desjardins et al., Antimicrob. Agents Chemother., vol. 16, p. 710, 1979; Milhous et al., Antimicrob. Agents Chemother., vol. 27, np. 525, 1985). […] For surveys, each concentration was assayed in triplicate while in expansions, each concentration was assayed in quadruplicate. To each well, 0.64 μCi of [^3H]-hypoxanthine (10-30 Ci/mmol; Perkin Elmer) was added and the plate was incubated for an additional 20 to 24 h. Samples from each well were harvested on filter paper and tritium counts were measured on the Beckmann Coulter LS6500 scintillation counter. […] Values considered as outliers according to Chauvenet's criterion were discarded and dropped from analysis. One survey and at least one expansion was performed for each compound.

A549 NSCLC cells [2] = assay: Activity of other esters against NSCLC (FIG. 13A-D); type: cell-based; details: Homo sapiens
Protocol: Cells were dosed as described above. […] The results shown in FIG. 13 are from a single experiment only.
Results are shown in FIG. 13 and in the table below

[3] = test system: PIP3 (prostate) cancer cell line; assay: MTS cell proliferation assay, PIP3; type: cell-based
Protocol: (§1) Cell proliferation was determined using the CellTiter 96 Aqueous One Solution Cell Proliferation Assay MTS assay. A549 NSCLC cells were plated at 1.5×10^3 cells per well in flat bottom 96 well plates in 99 μL of media and allowed to adhere overnight. The drugs were serially diluted in 100% DMSO. For each drug treatment group, 1 μL of a 100× stock solution was added to each well for a final DMSO concentration of 1%. Cells were treated for 24, 48 or 72 hours. Cells were incubated with MTS dye (20 μL well^−1) for 40 min to 2 h. Absorbance at 490 nm was determined using a SpectraMax M2 (Molecular Devices) plate reader. The percent cell proliferation was calculated by converting the experimental absorbance to percentage of control, which was then plotted vs. drug concentration. The IC50 values were determined using a non-linear dose-response analysis in GraphPad Prism version 4.0. The IC50 is defined as the concentration of drug needed to cause a 50% decrease in proliferation compared to vehicle control.
(§2) The activity of Clodronate prodrug (14) was tested against other cell lines, include prostate (PIP3) and breast (MDA-MB-453) cancer cells lines. Cell proliferation was determined using the CellTiter 96 Aqueous One Solution Cell Proliferation Assay MTS assay as discussed above. Results are shown in FIG. 22 and in the table below.

[4] = test system: MDA-MB-453 (breast) cancer cell line; assay: MTS cell proliferation assay, MDA-MB-453; type: cell-based; details: Homo sapiens
Protocol: as §1, §2

L1210 = assay: Cytotoxicity, L1210; type: cell-based
[5] = test system: breast and ovarian cancers; details: cited from earlier work
lung cancer cell lines = details: cited from earlier work
A549 NSCLC cells [6] = assay: Trypan blue cell count assay, A549; details: for EC50: read-out: EC50 (decreased cell number by 50% compared to control)
Protocol: A549 NSCLC cells were plated at 1.7×10^4 cells per well in flat bottom 12-well plates. Cells were dosed as described above. At 24, 48 or 72 hours following drug treatment, the media was collected, and the cells were washed with 200 μL PBS. Each well was trypsinized with 200 μL trypsin for 3-5 min. The trypsin reaction was quenched with an equal volume of media. All supernatants and washes were combined and spun at 1,500 rpm for 5 min. Supernatant was decanted, and the cells were resuspended in 200 μL media. The cells were diluted 1:1 in 0.04% trypan blue and counted using a cytometer. The absolute number of cells was determined at each drug concentration. The cell number for each concentration was converted to percent of control for each time point, and plotted using GraphPad Prism 4.0. The EC50 was calculated as the concentration of drug that caused a 50% decrease in number of cells compared to control.
The number of viable cells at each dose was determined at 0, 24, 48 and 72 hours following drug treatment and plotted as a percent of control (FIG. 6A).

A549 = assay: Cyclized zoledronate intermediate vs zoledronic acid, normoxia/hypoxia, A549; type: cell-based; details: Homo sapiens
H358 = assay: Cyclized zoledronate intermediate vs zoledronic acid, normoxia/hypoxia, H358; type: cell-based; details: Homo sapiens
[7] = test system: several cancer cell lines; details: cited from earlier work
[8] = Plasmodium falciparum, P. falciparum (NF54), read-out: IC50
[9] = A549, 24 h, single experiment, read-out: IC50 24 h
[10] = A549, 48 h, single experiment, read-out: IC50 48 h
[11] = A549, 72 h, single experiment, read-out: IC50 72 h

Structure (SMILES): O=P(O)(O)CP(=O)(O)O [Bisphosphonate, reference compound]
growth inhibitory effect against A549 cells (A549 NSCLC cells [1]): minimal activity

Structure (SMILES): CN(CCCCCl)P(=O)(OCc1ccccc1)C(Cl)(Cl)P(=O)(OCc1ccccc1)N(C)CCCCCl (stereo not drawn) [Chlorobenzyl analog]
IC50 (P. falciparum (NF54); Plasmodium falciparum, NF54): 5.9 µM
IC50 (A549 NSCLC cells [2]; A549, 24 h, read-out: IC50 24 h): 18.9 µM
IC50 (A549 NSCLC cells [2]; A549, 48 h, read-out: IC50 48 h): 11.9 µM
IC50 (A549 NSCLC cells [2]; A549, 72 h, read-out: IC50 72 h): 11.6 µM

EC50 (A549 NSCLC cells [1]): > 1000 µM
EC50 [3]: > 1000 µM
EC50 [4]: > 1000 µM
IC50 (P. falciparum (NF54); [8]): 750 µM
Structure (SMILES): O=P(O)(O)C(Cl)(Cl)P(=O)(O)O [Clodronate, clodronate, reference compound]
growth inhibitory effect against A549 cells (A549 NSCLC cells [1]): minimal activity
growth inhibitory effect against A549 cells (A549 NSCLC cells [1]; listed as clodronate): does not exhibit a detectable growth inhibitory effect
IC50 (L1210; Mus musculus): 830 µM
growth inhibition [5]: high micromolar or low millimolar range
activity against lung cancer cell lines (lung cancer cell lines): minimal activity

Structure (SMILES): CN(CCCCCl)P(=O)(CP(=O)(OCc1ccccc1)N(C)CCCCCl)OCc1ccccc1 (stereo not drawn) [Deschlorobenzyl Analog]
IC50 (A549 NSCLC cells [2]; [9]): 21.6 µM
IC50 (A549 NSCLC cells [2]; [10]): 12.8 µM
IC50 (A549 NSCLC cells [2]; [11]): 7.8 µM

Structure (SMILES): CCN(CC)P(=O)(OCc1ccc([N+](=O)[O-])cc1)C(Cl)(Cl)P(=O)(OCc1ccc([N+](=O)[O-])cc1)N(CC)CC (stereo not drawn) [Diethylamine Analog]
IC50 (P. falciparum (NF54); [8]): 3.3 µM

Structure (SMILES): COP(=O)(N(C)CCCCCl)C(Cl)(Cl)P(=O)(OC)N(C)CCCCCl (stereo not drawn) [Methoxy analog]
IC50 (P. falciparum (NF54); [8]): 22 µM
IC50 (A549 NSCLC cells [2]; [9]): 93.4 µM
IC50 (A549 NSCLC cells [2]; [10]): 100 µM
IC50 (A549 NSCLC cells [2]; [11]): 76.3 µM

Structure (SMILES): CN(CCCCCl)P(=O)(OCCc1ccc([N+](=O)[O-])cc1)C(Cl)(Cl)P(=O)(OCCc1ccc([N+](=O)[O-])cc1)N(C)CCCCCl (stereo not drawn) [Nitrophenethyl analog]
EC50 (A549 NSCLC cells [6]; Homo sapiens, A549, 24 h): ~10 µM
EC50 (A549 NSCLC cells [6]; Homo sapiens, A549, 48 h): 3.5 µM
EC50 (A549 NSCLC cells [6]; Homo sapiens, A549, 72 h): 4.2 µM
IC50 (P. falciparum (NF54); [8]): 0.97 ± 0.21 µM
IC50 (A549 NSCLC cells [2]; [9]): 4.8 µM
IC50 (A549 NSCLC cells [2]; [10]): 3.1 µM
IC50 (A549 NSCLC cells [2]; [11]): 2.1 µM

EC50 (A549 NSCLC cells [1]): 58 µM
EC50 [3]: 78 µM
EC50 [4]: 191 µM
IC50 (A549; A549, 48 h, Hypoxia): 350 µM
IC50 (A549; A549, 48 h, Normoxia): 98 µM
IC50 (A549; A549, 72 h, Hypoxia): 205 µM
IC50 (A549; A549, 72 h, Normoxia): 45 µM
IC50 (H358; NCI-H358, 48 h, H358, 48 hrs, Hypoxia): 87 µM
IC50 (H358; NCI-H358, 48 h, H358, 48 hrs, Normoxia): 59 µM
IC50 (H358; NCI-H358, 72 h, H358, 72 hrs, Hypoxia): 135 µM
IC50 (H358; NCI-H358, 72 h, H358, 72 hrs, Normoxia): 15 µM
Structure (SMILES): O=P(O)(O)C(O)(Cn1ccnc1)P(=O)(O)O [Zoledronate, zoledronate]
IC50 [7]: ≥ 3000 nM

Structure (SMILES): CN(CCCCCl)P(=O)(CP(=O)(OCc1ccc([N+](=O)[O-])cc1)N(C)CCCCCl)OCc1ccc([N+](=O)[O-])cc1 (stereo not drawn) [compound 13]
IC50 (A549 NSCLC cells [1]; 24 h): 17 ± 4 µM
IC50 (A549 NSCLC cells [1]; 48 h): 15.2 µM and 15 µM
IC50 (A549 NSCLC cells [1]; 72 h): 13 ± 1 µM
decrease in IC50 of 13 compared to 14 (A549 NSCLC cells [1]; A549 cells): 3 fold
EC50 (trypan blue) fold higher than IC50 (MTS) (A549 NSCLC cells [6]; A549, 48 h): ~3.6 fold
EC50 (A549 NSCLC cells [6]; A549, trypan blue, 48 h): 24 ± 4 µM
EC50 (A549 NSCLC cells [6]; A549, trypan blue, 72 h): 25 ± 4 µM
EC50 (A549 NSCLC cells [6]; A549, trypan blue, 72 h, listed as Bisphosphonate Prodrug): 24 ± 4 µM
IC50 (P. falciparum (NF54); P. falciparum (NF54), read-out: IC50): 5.2 ± 0.21 µM
IC50 (L1210): 27 µM
